Marks after values point to notes of the source that are not given here.
Key:
HT1080 cells = assay: Cell cycle analysis by propidium iodide flow cytometry in HT1080 cells (% cells in S-phase); assay type: cell-based, human; conditions: for % Cells In S-Phase: HT1080 cells, 100 nM, 18 hours, normoxic, DMSO control 17.3
Protocol: Experimental Design. […] After treatment, cells were trypsinized, and stained with propidium iodide (PI) dye to measure DNA content of individual cells by flow cytometry. Output comprised histograms showing relative DNA content in 10,000 cells.
While compounds which cause greater than 20% of the cells to accumulate in S-phase at 100 nM are considered active, a larger percentage of cells may be accumulated in S-phase at lower doses depending on the Compound, as shown in FIG. 12 for example.

[1] = tested on: hypoxia-inducible endogenous VEGF expression; assay: Hypoxia-inducible endogenous VEGF expression ELISA in HeLa cells, dose-response (EC50, Table 3); conditions: Homo sapiens, read-out: ELISA EC50 μM
MCF-7p xenografts [2] = assay: Aggressive MCF-7p estrogen-sensitive breast cancer xenograft, combination with paclitaxel; assay type: in vivo, mice
Protocol: (§1) Experimental Design. Aggressively growing, estrogen-sensitive MCF 7 breast cancer cells (hereafter referred to as MCF-7p) were passaged in vivo prior to use to generate a more aggressive cell line. Tumors were excised from donor mice, passed through a sterile mesh, and suspended in 0.9% sodium chloride, and 20 mg of this suspension was mixed 1:1 with Matrigel™. These tumor fragments were implanted subcutaneously into female athymic nude mice bearing estrogen pellets (0.72 mg/pellet) that had been inserted 2 days previously. After 28 days, when the tumors had become established and grown to a substantial size (i.e., the mean tumor size had reached ˜430 mm^3), mice were divided into 4 groups, and treatment was administered as shown in Table 30.
Tumor size was measured by calipers at periodic intervals during the study. After tumors in a given group had reached an average size of ˜1500 mm^3, the mice in that group were sacrificed; after 72 days of treatment, any remaining groups were taken off study.

MCF-7 xenografts = assay: MCF-7 estrogen-sensitive breast cancer xenograft, combination with tamoxifen; assay type: in vivo, mice
Protocol: Experimental Design. […] Estrogen pellets (0.72 mg/pellet) were implanted in the mice 9 days prior to cell implantation.
Tumor size was measured by calipers at periodic intervals during the study. After 42 days of treatment, the mice were sacrificed.

MCF-7p xenografts [3] = assay: Aggressive MCF-7p estrogen-sensitive breast cancer xenograft, combination with tamoxifen; assay type: in vivo, mice
Protocol: as §1, with “Aggressively” for “Experimental Design. Aggressively”, “˜435” for “˜430”, “34.” for “30.”
Tumor size was measured by calipers at periodic intervals during the study. When the mean tumor size in a group had reached 1500 mm^3, or after 72 days of treatment, the mice in the group were sacrificed.

[4] = tested on: aromatase-overexpressing MCF-7 xenografts; assay: Aromatase-overexpressing MCF-7 breast cancer xenograft, combination with letrozole; assay type: in vivo, mice; conditions: for Mean % Inhibition of Tumor Size vs Vehicle at Day 42 / Proportion Cured: aromatase-overexpressing MCF-7 xenografts, nude mice
Protocol: Experimental Design. Aromatase-overexpressing, estrogen-sensitive MCF-7 cells (7.0×10^6 cells/mouse) were implanted subcutaneously in ovariectomized female athymic nude mice. Androstenedione pellets (6 mg/pellet) were implanted 1 day prior to cell implantation.
Tumor size was measured by calipers at periodic intervals during the study. When the individual tumor size in a mouse exceeded 1500 mm^3, or after 98 days of treatment, that mouse was sacrificed.

[5] = Paclitaxel alone, 10 mg/kg IV Days 2, 5, 9, 12, 15, nude mice
[6] = 42 days of treatment, combination = Compound #10 with tamoxifen
[7] = Tamoxifen alone, 10 mg/kg QD, nude mice
[8] = Tamoxifen alone, 8 mg/kg Oral QD, nude mice
[9] = Letrozole (high-dose), 30 μg/mouse Oral QD
[10] = Letrozole (low-dose), 10 μg/mouse Oral QD

SMILES | EC50 [1] | other results
O=C(Oc1ccc(Cl)cc1)N1CCc2c([nH]c3ccc(Cl)cc23)C1c1ccc(OCCN2CCCCC2)cc1 (stereo not shown) |  | % Cells In S-Phase (HT1080 cells): 16.8%
CC(=O)N1CCN(CCCOc2ccc(C3c4[nH]c5ccc(Cl)cc5c4CCN3C(=O)Oc3ccc(Cl)cc3)cc2)CC1 (stereo not shown) [Compound 903] | < 0.008 µM | 
O=C(Oc1ccc(Cl)cc1)N1CCc2c([nH]c3ccc(Cl)cc23)C1c1ccc(OCC(O)CN2CCOCC2)cc1 (stereo not shown) [Compound 904] | < 0.008 µM | 
COCCN(C)CCCOc1ccc(C2c3[nH]c4ccc(Cl)cc4c3CCN2C(=O)Oc2ccc(Cl)cc2)cc1 (stereo not shown) [Compound 908] | < 0.008 µM | 
COCCN(CCOC)CC(O)COc1ccc(C2c3[nH]c4ccc(Cl)cc4c3CCN2C(=O)Oc2ccc(F)cc2)cc1 (stereo not shown) [Compound 913] | < 0.008 µM | 
COCCN(CCCOc1ccc(C2c3[nH]c4ccc(Cl)cc4c3CCN2C(=O)Oc2ccc(Cl)cc2)cc1)CCOC (stereo not shown) [Compound 916] | < 0.008 µM | 
COCCN(CCOC)CC(O)COc1ccc(C2c3[nH]c4ccc(Cl)cc4c3CCN2C(=O)Oc2ccc(Cl)cc2)cc1 (stereo not shown) [Compound 918] | < 0.008 µM | 
O=C(Oc1ccc(Cl)cc1)N1CCc2c([nH]c3ccc(Cl)cc23)C1c1ccc(OCC(O)CN2CCSCC2)cc1 (stereo not shown) [Compound 923] | < 0.008 µM | 
O=C(Oc1ccc(F)cc1)N1CCc2c([nH]c3ccc(Cl)cc23)C1c1ccc(OCC(O)CN2CCSCC2)cc1 (stereo not shown) [Compound 925] | < 0.008 µM | 
CN1CCCC(COc2ccc(C3c4[nH]c5ccc(Cl)cc5c4CCN3C(=O)Oc3ccc(F)cc3)cc2)C1 (stereo not shown) [Compound 932] | < 0.008 µM | 
O=C(Oc1ccc(Cl)cc1)N1CCc2c([nH]c3ccc(Cl)cc23)C1c1ccc(OCCCN2CCSCC2)cc1 (stereo not shown) [Compound 933] | < 0.008 µM | 
COCCN(C)CC(O)COc1ccc(C2c3[nH]c4ccc(Cl)cc4c3CCN2C(=O)Oc2ccc(F)cc2)cc1 (stereo not shown) [Compound 936] | < 0.008 µM | 
CCN(CC)CC(O)COc1ccc(C2c3[nH]c4ccc(Cl)cc4c3CCN2C(=O)Oc2ccc(Cl)cc2)cc1 (stereo not shown) [Compound 938] | < 0.008 µM | 
O=C(Oc1ccc(Cl)cc1)N1CCc2c([nH]c3ccc(Cl)cc23)C1c1ccc(OCCCN2CCN(CCO)CC2)cc1 (stereo not shown) [Compound 942] | 0.008 to 0.04 µM | 
CCN(CC)CCCOc1ccc(C2c3[nH]c4ccc(Cl)cc4c3CCN2C(=O)Oc2ccc(Cl)cc2)cc1 (stereo not shown) [Compound 946] | 0.008 to 0.04 µM | 
Cc1ccc(OC(=O)N2CCc3c([nH]c4ccc(Cl)cc34)C2c2ccc(OCC3CCCN(C)C3)cc2)cc1 (stereo not shown) [Compound 951] | 0.008 to 0.04 µM | 
CN1CCCC(COc2ccc(C3c4[nH]c5ccc(Cl)cc5c4CCN3C(=O)Oc3ccccc3)cc2)C1 (stereo not shown) [Compound 952] | 0.008 to 0.04 µM | 
CC(C)NCCCOc1ccc(C2c3[nH]c4ccc(Cl)cc4c3CCN2C(=O)Oc2ccc(Cl)cc2)cc1 (stereo not shown) [Compound 953] | 0.008 to 0.04 µM | 
O=C(Oc1ccc(Cl)cc1)N1CCc2c([nH]c3ccc(Cl)cc23)C1c1ccc(OCC(O)CN2CCN(CCO)CC2)cc1 (stereo not shown) [Compound 960] | 0.008 to 0.04 µM | 
CN1CCN(CCCOc2ccc(C3c4[nH]c5ccc(Cl)cc5c4CCN3C(=O)Oc3ccc(Cl)cc3)cc2)CC1 (stereo not shown) [Compound 961] | 0.008 to 0.04 µM | 
CN1CCN(CC(O)COc2ccc(C3c4[nH]c5ccc(Cl)cc5c4CCN3C(=O)Oc3ccc(F)cc3)cc2)CC1 (stereo not shown) [Compound 963] | 0.008 to 0.04 µM | 

SMILES | EC50 [1] | other results
COCCN(C)CC(O)COc1ccc(C2c3[nH]c4ccc(Cl)cc4c3CCN2C(=O)Oc2ccc(Cl)cc2)cc1 (stereo not shown) [Compound 964] | 0.008 to 0.04 µM | 
CN1CCCC(COc2ccc(C3c4[nH]c5ccc(Cl)cc5c4CCN3C(=O)Oc3ccc(Cl)cc3)cc2)C1 (stereo not shown) [Compound 966] | 0.008 to 0.04 µM | 
CN1CCN(CC(O)COc2ccc(C3c4[nH]c5ccc(Cl)cc5c4CCN3C(=O)Oc3ccc(Cl)cc3)cc2)CC1 (stereo not shown) [Compound 970] | 0.008 to 0.04 µM | 
CN1CCCC(COc2ccc(C3c4[nH]c5ccc(Cl)cc5c4CCN3C(=O)Oc3ccccc3Cl)cc2)C1 (stereo not shown) [Compound 976] | 0.04 to 0.2 µM | 
CC(C)NCC(O)COc1ccc(C2c3[nH]c4ccc(Cl)cc4c3CCN2C(=O)Oc2ccc(Cl)cc2)cc1 (stereo not shown) [Compound 977] | 0.04 to 0.2 µM | 
COc1ccc(OC(=O)N2CCc3c([nH]c4ccc(Cl)cc34)C2c2ccc(OCC3CCCN(C)C3)cc2)cc1 (stereo not shown) [Compound 981] | 0.04 to 0.2 µM | 
CC(=O)N1CCN(CCCOc2ccc(C3c4[nH]c5ccc(Cl)cc5c4CCN3C(=O)Oc3ccc(F)cc3)cc2)CC1 (stereo not shown) [Compound 988] | < 0.008 µM | 
O=C(Oc1ccc(F)cc1)N1CCc2c([nH]c3ccc(Cl)cc23)C1c1ccc(OCCCN2CCOCC2)cc1 (stereo not shown) [Compound 989] | < 0.008 µM | 
COCCN(CCCOc1ccc(C2c3[nH]c4ccc(Cl)cc4c3CCN2C(=O)Oc2ccc(F)cc2)cc1)CCOC (stereo not shown) [Compound 990] | < 0.008 µM | 
O=C(Oc1ccc(F)cc1)N1CCc2c([nH]c3ccc(Cl)cc23)C1c1ccc(OCCCN2CCSCC2)cc1 (stereo not shown) [Compound 991] | 0.04 to 0.2 µM | 
COCCN(C)CCCOc1ccc(C2c3[nH]c4ccc(Cl)cc4c3CCN2C(=O)Oc2ccc(F)cc2)cc1 (stereo not shown) [Compound 992] | 0.04 to 0.2 µM | 
CN1CCN(CCCOc2ccc(C3c4[nH]c5ccc(Cl)cc5c4CCN3C(=O)Oc3ccc(F)cc3)cc2)CC1 (stereo not shown) [Compound 993] | < 0.008 µM | 
Cc1ccc(OC(=O)N2CCc3c([nH]c4ccc(Cl)cc34)[C@@H]2c2ccc(OCCC(O)CN3CCOCC3)cc2)cc1 (stereo partly shown) [Compound 1302] | 0.04 to 0.2 µM | 
CN(C)CCN(C)CCCOc1ccc([C@H]2c3[nH]c4ccc(Cl)cc4c3CCN2C(=O)Oc2ccc(Cl)cc2)cc1 [Compound 1611] | < 0.008 µM | 
COc1ccc(C2c3[nH]c4ccc(Cl)cc4c3CCN2C(=O)Oc2ccc(Cl)cc2)cc1 (stereo not shown) [Compound #10] | < 0.008 µM | 
CC(=O)O[C@H]1C(=O)[C@@]2(C)[C@H]([C@H](OC(=O)c3ccccc3)[C@]3(O)C[C@H](OC(=O)[C@H](O)[C@@H](NC(=O)c4ccccc4)c4ccccc4)C(C)=C1C3(C)C)[C@]1(OC(C)=O)CO[C@@H]1C[C@@H]2O [Paclitaxel, paclitaxel] |  | tumor growth (MCF-7p xenografts [2]): transient cytoreduction and a tumor growth delay; Mean % Inhibition of Tumor Size vs Vehicle at Day 26 (MCF-7p xenografts [2]; [5]): 78* %; Median Time to Tumor Size ≧1000 mm^3 (MCF-7p xenografts [2]; [5]): 47 days
CC/C(=C(\c1ccccc1)c1ccc(OCCN(C)C)cc1)c1ccccc1 [Tamoxifen, tamoxifen] |  | mice cured (%) (MCF-7 xenografts; [6]): 70%; mice cured (number) (MCF-7 xenografts; [6]): 7 of the 10; Mean % Inhibition of Tumor Size vs Vehicle at Day 42 (MCF-7 xenografts; [7]): 84%; Proportion Cured (MCF-7 xenografts; [7]): 70%; tumor regression and growth delay (MCF-7 xenografts; combination = Compound #10 with tamoxifen): tumor regression and growth delay were observed; tumor growth (MCF-7p xenografts [3]): only modestly delayed tumor growth; Mean % Inhibition of Tumor Size vs Vehicle at Day 26 (MCF-7p xenografts [3]; [8]): 33* %; Median Time to Tumor Size ≧1000 mm^3 (MCF-7p xenografts [3]; [8]): 24 days
O=C(Oc1ccc(Cl)cc1)N1CCc2c([nH]c3ccc(Cl)cc23)C1c1ccc(OCCN2CCOCC2)cc1 (stereo not shown) [drawing 535] |  | % Cells In S-Phase (HT1080 cells): 16.4%
N#Cc1ccc(C(c2ccc(C#N)cc2)n2cncn2)cc1 [letrozole] |  | Mean % Inhibition of Tumor Size vs Vehicle at Day 42 [4, 9]: 79%; Proportion Cured [4, 9]: 20%; Mean % Inhibition of Tumor Size vs Vehicle at Day 42 [4, 10]: 72%; Proportion Cured [4, 10]: 10%; tumor growth ([4]; high-dose letrozole): tumor regression was observed; tumor growth ([4]; low-dose letrozole): tumor growth was prevented but tumor reduction was not observed
NC(Cn1ccc(=O)c(O)c1)C(=O)O (stereo not shown) [mimosine, reference compound] |  | delay or prolongation of the cell cycle (HT1080 cells; same tumor cells, data not shown): does not delay or prolong the cell cycle or reduce VEGF production
